Laboratory results reported in patent publication US5180831A (priority 1990, dated 1993).
Entries after “also recorded” stand apart in the source; their conditions may differ.

Experiments:
in vivo [1] = conditions: mouse, im
AChE = type: biochemical, electric eel and human
in vivo [2] = conditions: mouse, po
[3] = mouse, in vivo
[4] = design: species or system Male ICR mice; conditions: mouse, in vivo
electric eel AChE = electric eel AChE (Electrophorus electricus, UniProt O42275); assay: biochemical
Chain of electric eel AChE (O42275 24-633): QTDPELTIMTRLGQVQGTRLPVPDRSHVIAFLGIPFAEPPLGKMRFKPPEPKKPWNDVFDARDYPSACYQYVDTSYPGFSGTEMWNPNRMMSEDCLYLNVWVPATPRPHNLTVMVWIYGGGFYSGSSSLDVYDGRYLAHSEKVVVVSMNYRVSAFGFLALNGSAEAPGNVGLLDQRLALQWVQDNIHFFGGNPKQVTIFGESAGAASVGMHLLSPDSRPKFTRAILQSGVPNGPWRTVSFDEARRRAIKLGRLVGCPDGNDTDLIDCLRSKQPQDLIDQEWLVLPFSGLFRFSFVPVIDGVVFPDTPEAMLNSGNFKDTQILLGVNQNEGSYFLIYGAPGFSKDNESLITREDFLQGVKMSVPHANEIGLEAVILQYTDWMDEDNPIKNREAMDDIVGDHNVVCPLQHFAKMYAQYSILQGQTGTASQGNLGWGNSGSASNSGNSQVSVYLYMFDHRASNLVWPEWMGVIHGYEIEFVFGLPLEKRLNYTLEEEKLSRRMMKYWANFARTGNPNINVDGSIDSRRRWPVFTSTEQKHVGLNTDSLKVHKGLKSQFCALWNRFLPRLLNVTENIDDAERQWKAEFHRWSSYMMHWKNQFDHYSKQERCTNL

human erythrocyte AChE = human erythrocyte AChE (Homo sapiens, UniProt P22303); assay: biochemical; conditions: read-out: kobs /[I] (human)
Chain of human erythrocyte AChE (P22303-2 with tags, fused parts or gaps limits assumed): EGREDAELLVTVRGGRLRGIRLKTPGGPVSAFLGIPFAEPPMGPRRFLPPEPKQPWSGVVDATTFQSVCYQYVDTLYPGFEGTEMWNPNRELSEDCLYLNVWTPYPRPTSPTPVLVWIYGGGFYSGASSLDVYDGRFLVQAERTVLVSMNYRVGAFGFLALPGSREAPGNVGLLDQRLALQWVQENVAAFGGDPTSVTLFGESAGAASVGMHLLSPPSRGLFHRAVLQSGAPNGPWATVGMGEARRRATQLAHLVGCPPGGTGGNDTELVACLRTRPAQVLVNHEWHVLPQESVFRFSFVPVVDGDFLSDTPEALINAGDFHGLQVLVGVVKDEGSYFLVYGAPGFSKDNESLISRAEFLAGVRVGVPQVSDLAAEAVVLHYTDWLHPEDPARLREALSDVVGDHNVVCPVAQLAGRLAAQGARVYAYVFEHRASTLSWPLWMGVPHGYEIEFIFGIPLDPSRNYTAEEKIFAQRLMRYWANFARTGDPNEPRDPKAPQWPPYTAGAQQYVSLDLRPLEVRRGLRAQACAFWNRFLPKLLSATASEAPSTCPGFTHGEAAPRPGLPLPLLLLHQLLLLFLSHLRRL

C[n+]1ccccc1C=NOCc1ccccc1 [Compound 1a, O-Benzyl-N-(1-methyl-2-pyridinemethylene) hydroxylamine chloride]
LD50 at 24 h (in vivo [1]): 180 µmol/kg | mode of inhibition (AChE): pure competitive inhibition

C[n+]1cccc(O)c1C=NOCc1ccccc1 [Compound 1b, O-Benzyl-N-(3-hydroxy-1-methyl-2-pyridinemethylene) hydroxylamine chloride]
LD50 at 24 h (in vivo [2]): 3600 µmol/kg | LD50 at 24 h (in vivo [1]): > 880 µmol/kg | mode of inhibition (AChE): pure competitive inhibition

CON=Cc1c(O)ccc[n+]1C [Compound 1c, O-Methyl-N-(3-hydroxy-1-methyl-2-pyridinemethylene) hydroxylamine chloride]
LD50 at 24 h (in vivo [1]): > 1970 µmol/kg

C[n+]1cccc(O)c1C=NOCc1ccc(Cl)cc1 [Compound 1d, O-(p-Chlorobenzyl)-N-(3-hydroxy-1-methyl-2-pyridinemethylene) hydroxylamine chloride]
LD50 at 24 h (in vivo [1]): > 320 µmol/kg | mode of inhibition (AChE): pure competitive inhibition

COc1ccc(CON=Cc2c(O)ccc[n+]2C)cc1 [Compound 1e, O-(p-Methoxybenzyl)-N-(3-hydroxy-1-methyl-2-pyridinemethylene) hydroxylamine chloride]
LD50 at 24 h (in vivo [2]): > 3200 µmol/kg | LD50 at 24 h (in vivo [1]): > 760 µmol/kg | mode of inhibition (AChE): pure competitive inhibition

C[n+]1cccc(O)c1C=NO [Compound 1f]
toxicity in words [3]: small increase in toxicity

C[n+]1cc(O)ccc1C=NO [Compound 1g, reference compound]
toxicity in words [3]: small increase in toxicity | LD50 at 24 h (in vivo [1]): > 514 µmol/kg

C[n+]1ccccc1/C=N/O [Compound 2-PAM, reference compound]
LD50 at 24 h (in vivo [1]): 853 µmol/kg

C[n+]1cccc(O)c1C=NNC(N)=O.[Cl-] [Compound 3a, 2-[[(Aminocarbonyl)hydrazono]methyl]-3-hydroxy-1-methyl pyridinium chloride]
LD50 at 24 h (in vivo [1]): > 1100 µmol/kg

C[n+]1cccc(O)c1C=NNC(=O)Nc1ccccc1.[Cl-] [Compound 3b, 3-Hydroxy-1-methyl-2-[[(N-phenylaminocarbonyl)hydrazono]methyl]pyridinium chloride]
LD50 at 24 h (in vivo [1]): > 40 µmol/kg

C[n+]1ccccc1C=NNC(N)=O [Compound 3c]
LD50 at 24 h (in vivo [1]): > 560 µmol/kg

C[n+]1ccccc1C=NNC(=O)Nc1ccccc1.[Cl-] [Compound 3d, 1-Methyl-2-[[(N-phenylaminocarbonyl)hydrazono]methyl]pyridinium chloride]
LD50 at 24 h (in vivo [1]): > 430 µmol/kg

C[n+]1cccc(O)c1C=NNC(=O)C[n+]1ccccc1 [Compound 5a, 2-(3-Hydroxy-1-methyl-2-pyridinemethylene)-1-[2-(1-pyridinium)acetyl]hydrazine dichloride]
GA reactivator activity in words [4]: significant activity as GA reactivators; also recorded: good in vivo reactivators against GA | LD50 at 24 h (in vivo [2]): 2900 µmol/kg | LD50 at 24 h (in vivo [1]): > 670 µmol/kg

C[n+]1ccccc1C=NNC(=O)C[n+]1ccccc1 [Compound 5b, 2-(1-Methyl-2-pyridinemethylene)-1-[2-(1-pyridinium)acetyl]hydrazine dichloride]
GA reactivator activity in words [4]: significant activity as GA reactivators; also recorded: good in vivo reactivators against GA | LD50 at 24 h (in vivo [1]): 380 µmol/kg

NC(=O)c1cc[n+](COC[n+]2ccccc2/C=N/O)cc1 [HI-6, reference compound]
LD50 at 24 h (in vivo [1]): 4500 µmol/kg

CNC(=O)Oc1ccc2c(c1)[C@]1(C)CCN(C)[C@@H]1N2C [Phy, Physostigmine]
kobs /[I] (eel) (electric eel AChE; 0.1 m phosphate buffer): 14000 M⁻¹ s⁻¹

CN(C)C(=O)Oc1ccc[n+](C)c1 [Pyr, Pyridostigmine]
kinact/KI (electric eel AChE; read-out: kobs /[I] (eel)): 580 M⁻¹ s⁻¹ | kinact/KI (human erythrocyte AChE): 13000 M⁻¹ s⁻¹
